Laboratory results reported in patent US12629419B2, “Prevention or mitigation of T-cell engaging agent-related adverse effects” (Hoffmann-La Roche Inc., priority 2020, dated 2026).
“Also recorded” adds a separate entry of the source.

Tests used:
WSU DLCL2 tumor cells [1] = test: killing assay with PBMCs, CTV labelled WSU DLCL2 tumor cells and CD20-TCB; type: cell-based; settings: 24 h; for CD20-TCB-mediated target cell killing: 1 nM CD20-TCB, inhibitor 0 nM to 1000 nM; for killing of B cells: WSU cells with PBMCs, CD20-TCB, fixed compound concentrations
Procedure: FIG. 13. In vitro killing assay set-up.
FIG. 14. […] At 24 hours, the tumor cells and PBMCs from technical replicates were pooled and stained with a LIVE/DEAD™ Near-IR dead cell dye to allow exclusion of dead CTV labelled WSU DLCL2 tumor cells by flow cytometry. Mean of n=3 donors+/−SEM.
(§1) A similar experiment was conducted with another TCB. WSU DLCL2 cells were co-cultured together with PBMCs in the presence of 1 nM CD20-TCB (SEQ ID NOs 4-11, 24-35), and escalating sirolimus doses ranging from 0 nM to 1000 nM (FIG. 13).
(§2) A similar experiment was conducted with another TCB. […] The killing of B cells was measured as a readout for the impact of the various compounds on TCB efficacy at 24 h (FIGS. 27 and 28). […] Lastly, the levels of cytokines (TNF-α, IFN-γ, IL-2, IL-6, IL-4, IL-10, GM-CSF and IL-1β) were analyzed by Luminex at assay endpoint to assess the impact of the different treatments on TCB-induced cytokine release (FIGS. 32 and 33).
(§3) At 24 hours, tumor cell killing was measured by flow cytometry by exclusion of dead CTV cells. The supernatants were collected and cytokines were measured by Luminex.

WSU DLCL2 tumor cells [2] = test: CD20-TCB killing assay, inhibitors added after 18 hours of activation: tumor cell killing; type: cell-based; settings: 100 nM added at 18 h
Procedure: (§4) FIG. 34. In vitro killing assay set-up. Cell Trace™ Violet (CTV) labelled WSU DLCL2 tumor cells were co-cultured together with PBMCs [E:T=200′000:20′000] and stimulated with CD20-TCB for 18 h.
(§5) In this assay, CTV labelled WSU DLCL2 tumors cells were co-cultured with PBMCs in the presence of escalating doses of CD20-TCB for 18 hours.

CD4+ and CD8+ T cells [3] = test: T cell activation (CD25, CD69 by flow cytometry) in CEA-TCB killing assay; type: cell-based; settings: 10 nM CEA-TCB; for T cell activation triggered by the TCB: summary statement, also for target cell killing; for CD25 and CD69 expression on CD4+ and CD8+ T cells (T cell activation): 66 h, fixed compound concentrations; for expression of CD69 on CD8+ T cells / expression of CD25 on CD4+ T cells / expression of CD69 on CD4+ T cells / expression of CD25 on CD8+ T cells: 72 h; for expression of CD25 on CD4+ T cells / expression of CD69 on CD4+ T cells / expression of CD25 on CD8+ T cells: concentrations above 25 nM; for expression of CD25 on CD4+ T cells / expression of CD69 on CD4+ T cells: reduced from ~45%; for expression of CD25 on CD8+ T cells: reduced from ~75% (everolimus: ~70%)
[4] = system: A375 NucLight Red (NLR) target-cells; test: killing assay with PBMCs, A375 NLR target cells and MAGEA4-TCB (Incucyte); type: cell-based; settings: 8 nM MAGEA4-TCB; escalating inhibitor concentrations
[5] = system: CEA-TCB-induced cytokine release; test: CEA-TCB-induced cytokine release (Luminex, supernatants); settings: 10 nM CEA-TCB; for CEA-TCB induced cytokine release: even at the lowest doses tested; for CEA-TCB-induced cytokine release: 66 h, fixed compound concentrations; for levels of IFN-γ, TNF-α, IL-2, IL-6, MCP-1, IL-8, IL-10, IL-4 and GM-CSF: assay endpoint 72 h (ruxolitinib 69 h), in comparison to samples without inhibitor
Procedure: The levels of cytokines were measured by Luminex in the supernatants of the assay to determine the impact of the different compounds on CEA-TCB-induced cytokine release.

SUDLH-8 tumor cells = test: killing assay with PBMCs, CTV labelled SUDLH-8 tumor cells and CD19-TCB; type: cell-based; settings: 24 hrs; 100 nM kinase inhibitors or dexamethasone, 5 μg/mL antibodies
Procedure: FIG. 64. In vitro killing assay set-up. PBMCs were co-cultured with CellTrace™ Violet (CTV) labelled SUDLH-8 tumor cells (E:T=10:1) in the presence of escalating concentrations of CD19-TCB in media supplemented with the different kinase inhibitors (100 nM) for 24 hrs.
FIG. 69. In vitro killing assay set-up. PBMCs were co-cultured with CTV labelled SUDLH-8 cells (E:T=10:1) in the presence of escalating concentrations of CD19-TCB in media supplemented with the different JAK inhibitors (100 nM) for 24 hrs.
FIG. 73. In vitro killing assay set-up.
PBMCs were co-cultured together with CellTrace™ Violet (CTV) labelled SUDLH-8 tumor cells and escalating concentrations of CD19-TCB in the presence of the different kinase inhibitors, including also the Src inhibitor dasatinib (FIG. 64). At assay endpoint (24 hrs), the killing of CTV labelled SUDLH-8 cells was measured by flow cytometry by exclusion of the dead SUDLH-8 cells with a Live/Dead stain. […] Lastly, the levels of cytokines were measured in the supernatants of the assay to evaluate the effect of mTOR, JAK and Src inhibitors on CD19-TCB-induced cytokine release.
(§6) At assay endpoint (24 hrs), the killing of CTV labelled SUDLH-8 cells was measured by flow cytometry by exclusion of the dead SUDLH-8 cells with a Live/Dead stain. […] Lastly, the levels of cytokines were measured in the supernatants of the assay to assess the effect of the JAK inhibitors on CD19-TCB-induced cytokine release.
as §6, with “stain to evaluate the effect of the different mitigation approaches on CD19-TCB-dependent killing.” for “stain.”, “address” for “assess”

CD4+ and CD8+ T cells [6] = test: CD20-TCB killing assay, inhibitors added after 18 hours: T cell activation; type: cell-based; settings: 100 nM added at 18 h
Procedure: as §4, §5

[7] = system: CD20-TCB-induced cytokine release; test: CD20-TCB-induced cytokine release (Luminex); type: cell-based; settings: 24 h; for CD20-TCB-induced cytokine release: escalating CD20-TCB / 1 nM CD20-TCB, fixed compound concentrations; for cytokine release induced by CD20-TCB (IFN-γ, IL-2, TNF-α, GM-CSF and IL-6): 1 nM CD20-TCB, concentrations above 12.5 nM
Procedure: A similar experiment was conducted with another TCB.
(§7) A similar experiment was conducted with CD20-TCB.
(§8) A similar experiment was conducted with CD20-TCB. WSU DLCL2 cells were co-cultured together with PBMCs in the presence of 1 nM CD20-TCB, and escalating everolimus doses ranging from 0 nM to 1000 nM (FIG. 13).
(§9) A similar experiment was conducted with CD20-TCB. WSU DLCL2 cells were co-cultured together with PBMCs in the presence of 1 nM CD20-TCB, and escalating ruxolitinib doses ranging from 0 nM to 1000 nM (FIG. 13).
as §2, §3

[8] = system: MAGEA4-TCB-induced cytokine release; test: MAGEA4-TCB-induced cytokine release; type: cell-based; settings: 8 nM MAGEA4-TCB; 72 hours; with increasing concentrations
Procedure: FIG. 45. Effect of escalating concentrations (c) of ruxolitinib on IFN-γ (A), IL-2 (B), TNF-α (C), GM-CSF (D), IL-6 (E), IL-1β (F), IL-8 (G), MCP-1 (H) and IL-10 (I) levels induced by 8 nM MAGEA4-TCB. At 72 hours, the supernatants were collected and cytokines were analyzed by cytometric bead array (CBA). Mean of technical replicates+/−SD for 1 representative donor.
FIG. 47. […] At 72 hours, the supernatants were collected and cytokines were analyzed by CBA. Mean of technical replicates+/−SD for 1 representative donor.
The effect of ruxolitinib on TCB-induced tumor cell killing and cytokine release was assessed using an additional TCB, the MAGEA4-TCB (SEQ ID NOs 37-56).

CD4+ and CD8+ T cells [9] = test: T cell activation (CD25, CD69) in CD20-TCB killing assay; type: cell-based; settings: 1 nM CD20-TCB; 24 h; inhibitor 0 nM to 1000 nM
Procedure: as §1, §7, §8, §9, §2, §3

[10] = 1 nM CD20-TCB, three donors, between 18 hours and 44 hours
[11] = measured at 44 hours, escalating CD20-TCB

SMILES | CD20-TCB-mediated target cell killing (WSU DLCL2 tumor cells [1]) | killing of B cells (WSU DLCL2 tumor cells [1]) | CTV labelled WSU DLCL2 tumor cell killing (WSU DLCL2 tumor cells [2]; [10]) | CTV labelled WSU DLCL2 tumor cell killing (WSU DLCL2 tumor cells [2]; [11]) | T cell activation triggered by the TCB (CD4+ and CD8+ T cells [3]) | CD25 and CD69 expression on CD4+ and CD8+ T cells (T cell activation) (CD4+ and CD8+ T cells [3]) | expression of CD69 on CD8+ T cells (CD4+ and CD8+ T cells [3]) | expression of CD25 on CD4+ T cells (CD4+ and CD8+ T cells [3]) [%] | expression of CD69 on CD4+ T cells (CD4+ and CD8+ T cells [3]) [%] | expression of CD25 on CD8+ T cells (CD4+ and CD8+ T cells [3]) [%] | MAGEA4-TCB induced tumor cell killing [4] | CEA-TCB induced cytokine release [5] | CEA-TCB-induced cytokine release [5] | CD19-TCB-dependent killing of CTV labelled SUDLH-8 cells (SUDLH-8 tumor cells) | T cell activation (CD4+ and CD8+ T cells [6]; [10]) | T cell activation (CD4+ and CD8+ T cells [6]; [11]) | CD20-TCB-induced cytokine release [7] | levels of IFN-γ, IL-2, TNF-α, IL-8, IL-6, MCP-1 and IL-10 [8] | T cell activation (CD25 and CD69 on CD4+ and CD8+ T cells) (CD4+ and CD8+ T cells [9]) | levels of IFN-γ, TNF-α, IL-2, IL-6, MCP-1, IL-8, IL-10, IL-4 and GM-CSF [5] | further results
CO[C@H]1C[C@@H]2CC[C@@H](C)[C@@](O)(O2)C(=O)C(=O)N2CCCC[C@H]2C(=O)O[C@H]([C@H](C)C[C@@H]2CC[C@@H](OC(=O)C(C)(CO)CO)[C@H](OC)C2)CC(=O)[C@H](C)/C=C(\C)[C@@H](O)[C@@H](OC)C(=O)[C@H](C)C[C@H](C)/C=C/C=C/C=C/1C [temsirolimus, Temsirolimus] | did not fully inhibit | did neither prevent | did not impact further | did not impact | does not fully inhibit | milder impact | did not affect | ~15 | ~25 | 40 | did not prevent | strongly downregulated; also recorded: strongly reduces | inhibited; also recorded: comparable to dexamethasone and dasatinib | did not prevent | did not impact further | did not impact | comparable effect to dexamethasone and dasatinib | reduced | did not fully inhibit | – | –
CO[C@H]1C[C@@H]2CC[C@@H](C)[C@@](O)(O2)C(=O)C(=O)N2CCCC[C@H]2C(=O)O[C@H]([C@H](C)C[C@@H]2CC[C@@H](OCCO)[C@H](OC)C2)CC(=O)[C@H](C)/C=C(\C)[C@@H](O)[C@@H](OC)C(=O)[C@H](C)C[C@H](C)/C=C/C=C/C=C/1C [everolimus, Everolimus] | did not fully inhibit | did neither prevent | did not impact further | did not impact | does not fully inhibit | milder impact | did not affect | ~15 | ~25 | 40 | did not prevent | strongly downregulated; also recorded: strongly reduces | inhibited; also recorded: comparable to dexamethasone and dasatinib | did not prevent | did not impact further | did not impact | comparable effect to dexamethasone and dasatinib | reduced | did not fully inhibit | very low | cytokine release induced by CD20-TCB (IFN-γ, IL-2, TNF-α, GM-CSF and IL-6) [7]: strongly reduced
CO[C@H]1C[C@@H]2CC[C@@H](C)[C@@](O)(O2)C(=O)C(=O)N2CCCC[C@H]2C(=O)O[C@H]([C@H](C)C[C@@H]2CC[C@@H](O)[C@H](OC)C2)CC(=O)[C@H](C)/C=C(\C)[C@@H](O)[C@@H](OC)C(=O)[C@H](C)C[C@H](C)/C=C/C=C/C=C/1C [sirolimus, Sirolimus] | did not fully inhibit | did neither prevent | did not impact further | did not impact | does not fully inhibit | milder impact | did not affect | ~15 | ~25 | 40 | did not prevent | strongly downregulated; also recorded: strongly reduces | inhibited; also recorded: comparable to dexamethasone and dasatinib | did not prevent | did not impact further | did not impact | comparable effect to dexamethasone and dasatinib | reduced | did not fully inhibit | very low | cytokine release induced by CD20-TCB (IFN-γ, IL-2, TNF-α, GM-CSF and IL-6) [7]: strongly reduced
